Measured values reported in PubChem BioAssay (NCI).
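Assay format: 96-well plates, 48-hour exposure. TGI marks complete inhibition of growth.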

Key:
Experiment in all cases: inhibition of tumour cell growth, NCI panel, 48 h
786-0 renal = test system: 786-0 renal
CCRF-CEM leukemia = test system: CCRF-CEM leukemia
HL-60(TB) leukemia = test system: HL-60(TB) leukemia
HT29 colon = test system: HT29 colon
M14 melanoma = test system: M14 melanoma
MDA-N = test system: MDA-N
NCI-H522 lung = test system: NCI-H522 lung
SK-MEL-2 melanoma = test system: SK-MEL-2 melanoma
SK-MEL-5 melanoma = test system: SK-MEL-5 melanoma
SNB-19 CNS = test system: SNB-19 CNS
SR leukemia = test system: SR leukemia

COC(=O)[C@@H]1CN(C(=O)c2ccccc2)C(=O)N1C(=O)OCc1ccccc1
TGI (786-0 renal): > 100 µM
TGI (CCRF-CEM leukemia): > 100 µM
TGI (HL-60(TB) leukemia): > 100 µM
TGI (HT29 colon): > 100 µM
TGI (M14 melanoma): > 100 µM
TGI (MDA-N): > 100 µM
TGI (NCI-H522 lung): > 100 µM
TGI (SK-MEL-2 melanoma): > 100 µM
TGI (SK-MEL-5 melanoma): > 100 µM
TGI (SNB-19 CNS): > 100 µM
TGI (SR leukemia): > 100 µM

NC1=NCC(CN2CCCC2)O1 (stereo not drawn)
TGI (786-0 renal): > 100 µM
TGI (CCRF-CEM leukemia): > 100 µM
TGI (HL-60(TB) leukemia): > 100 µM
TGI (HT29 colon): > 100 µM
TGI (M14 melanoma): > 100 µM
TGI (MDA-N): > 100 µM
TGI (NCI-H522 lung): > 100 µM
TGI (SK-MEL-2 melanoma): > 100 µM
TGI (SK-MEL-5 melanoma): > 100 µM
TGI (SNB-19 CNS): > 100 µM
TGI (SR leukemia): > 100 µM

CC(C)C1(O)C(=O)N(c2c(F)c(F)c(F)c(F)c2F)C(=S)N1CCSc1ccccc1 (stereo not drawn)
TGI (786-0 renal): 33.3 µM
TGI (CCRF-CEM leukemia): 31.7 µM
TGI (HL-60(TB) leukemia): 29.2 µM
TGI (HT29 colon): 32.5 µM
TGI (M14 melanoma): 31.9 µM
TGI (MDA-N): 31.3 µM
TGI (NCI-H522 lung): 30.5 µM
TGI (SK-MEL-2 melanoma): 32.5 µM
TGI (SK-MEL-5 melanoma): 32.7 µM
TGI (SNB-19 CNS): 31.9 µM
TGI (SR leukemia): 43 µM

O=C1c2ccccc2C(=O)N1c1nc(-c2ccc(Cl)cc2)cc(N2N=C(c3ccc(Br)cc3)CC2c2ccccc2)n1 (stereo not drawn)
TGI (786-0 renal): > 34.1 µM
TGI (CCRF-CEM leukemia): > 29.6 µM
TGI (HL-60(TB) leukemia): > 100 µM
TGI (HT29 colon): 9.66 µM
TGI (M14 melanoma): > 36.1 µM
TGI (MDA-N): 4.57 µM
TGI (NCI-H522 lung): 5.51 µM
TGI (SK-MEL-2 melanoma): > 42.2 µM
TGI (SK-MEL-5 melanoma): 5.02 µM
TGI (SNB-19 CNS): > 33.8 µM
TGI (SR leukemia): 2.42 µM

CC1CC/C(=C\c2ccc(Cl)cc2)c2nc(N)c(C#N)c(-c3ccc(Cl)cc3)c21 (stereo not drawn)
TGI (786-0 renal): > 100 µM
TGI (CCRF-CEM leukemia): > 100 µM
TGI (HL-60(TB) leukemia): 15.4 µM
TGI (HT29 colon): > 100 µM
TGI (M14 melanoma): > 100 µM
TGI (MDA-N): > 100 µM
TGI (NCI-H522 lung): > 100 µM
TGI (SK-MEL-2 melanoma): > 100 µM
TGI (SK-MEL-5 melanoma): > 100 µM
TGI (SNB-19 CNS): 69.5 µM
TGI (SR leukemia): > 100 µM

Cn1c2ccccc2n2c3ncccc3c(=S)c(C#N)c12
TGI (786-0 renal): > 100 µM
TGI (CCRF-CEM leukemia): > 100 µM
TGI (HL-60(TB) leukemia): > 100 µM
TGI (HT29 colon): > 100 µM
TGI (M14 melanoma): > 100 µM
TGI (MDA-N): > 100 µM
TGI (NCI-H522 lung): > 100 µM
TGI (SK-MEL-2 melanoma): > 100 µM
TGI (SK-MEL-5 melanoma): > 100 µM
TGI (SNB-19 CNS): > 100 µM
TGI (SR leukemia): > 100 µM

O=C(/C=C/c1cccs1)c1ccccc1Cl
TGI (786-0 renal): 27.8 µM
TGI (CCRF-CEM leukemia): 33.9 µM
TGI (HL-60(TB) leukemia): 30.4 µM
TGI (HT29 colon): 42.5 µM
TGI (M14 melanoma): > 55.9 µM
TGI (MDA-N): 33.9 µM
TGI (NCI-H522 lung): 15 µM
TGI (SK-MEL-2 melanoma): 43.6 µM
TGI (SK-MEL-5 melanoma): 32.5 µM
TGI (SNB-19 CNS): 28.9 µM
TGI (SR leukemia): > 47.6 µM

N/C(=N\Nc1ccc(S(N)(=O)=O)cc1)c1cnccn1
TGI (786-0 renal): > 100 µM
TGI (CCRF-CEM leukemia): > 100 µM
TGI (HL-60(TB) leukemia): > 100 µM
TGI (HT29 colon): > 100 µM
TGI (M14 melanoma): > 100 µM
TGI (MDA-N): > 100 µM
TGI (NCI-H522 lung): > 100 µM
TGI (SK-MEL-2 melanoma): > 100 µM
TGI (SK-MEL-5 melanoma): > 100 µM
TGI (SNB-19 CNS): > 100 µM
TGI (SR leukemia): > 100 µM
